Measurements taken from US6066484A, “Purine nucleosidase” (Suntory Limited, priority 1996, dated 2000).

What was measured:
purine nucleosidase [1] = assay: Specific activity, Km and Vmax of purine nucleosidase; assay type: biochemical, Ochrobactrum anthropi; conditions: pH 4.5; for Km / Vmax: 30° C.; for Specific activity: 50° C.
Experimental: (§1) The reaction solution (200 μl) contained 0.5 mM of adenosine or inosine or 0.25 mM of guanosine as the substrate, 50 mM of acetate buffer at pH 4.5 and a sufficient amount of enzyme. The reaction was initiated by addition of the enzyme, and the reaction was conducted at 50° C. for 5 minutes. The reaction was terminated by addition of 20 μl of 15% perchloric acid, and after centrifugation (35,000 rpm, 10 min) the supernatant was analyzed qualitatively by thin-layer chromatography (TLC) and quantitatively by high-performance liquid chromatography. The analysis methods were as follows.
(2) High-performance liquid chromatography
Eluent: 0.1 M sodium chlorate tetrahydrate, 0.1% (v/v) phosphoric acid
(§2) The specific activity was measured under conditions of 50° C., pH 4.5. The Km and Vmax were measured under conditions of 30° C., pH 4.5. The relative activity was expressed according to the following measurement method.

[2] = test system: Aspergillus niger nucleosidase; conditions: cited from earlier work
purine nucleosidase [3] = assay: Substrate specificity of purine nucleosidase by thin-layer chromatography; assay type: biochemical, Ochrobactrum anthropi; conditions: for decomposition of purine nucleosides (in words): pH 5.5 and 60° C.; for Relative activity: thin-layer chromatography
Experimental: as §1
(1) Thin-layer chromatography
Plate: Kieselgel 60F254 (Merk)
Developing solution: n-butanol/isopropanol/H2 O/NH4 OH=1:7:2:0.2 (v/v/v/v) (for adenosine and guanosine substrates), n-butanol/acetic acid/H2 O=5:1:1 (v/v/v) (for inosine substrate)
The substrate specificity of the purine nucleosidase was determined by thin-layer chromatography (TLC).
as §2

[4] = test system: Active fraction 2 (purine nucleosidase activity); assay: Purine nucleosidase activity of active fraction 2 (1st DEAE-Sephacel); assay type: biochemical, Ochrobactrum anthropi
[5] = test system: Bacillus cereus nucleosidase; assay: Bacillus cereus nucleosidase, cell extracts; assay type: biochemical; conditions: studies by the present inventors
Description: Based on studies by the present inventors using cell extracts, the activity against guanosine is low. Crithidia fasciculata nucleosidase has a high optimum pH of 8.5. Wort also contains various low molecular substances, sugars and proteins, and it has not yet been investigated whether known nucleosidases can actually act on them. Therefore, we screened natural sources for microorganism-derived purine nucleosidases which can utilize adenosine, inosine and guanosine as substrates under conditions of pH 5.0 to 5.5, 50 to 80° C. As a result, high purine nucleosidase activity was found in crushed cell solutions of Ochrobactrum anthropi.

[6] = test system: Active fraction 1 (purine nucleosidase activity); assay: Purine nucleosidase activity of active fraction 1 (1st DEAE-Sephacel); assay type: biochemical, Ochrobactrum anthropi
Experimental: After suspending 20 g of the wet cells in 40 ml of 10 mM Tris-HCl buffer solution (pH 7.4) (hereunder referred to as "buffer"), they were disrupted in a Dynamill at 4° C. for 10 minutes. After filtering the disrupted cell suspension it was centrifuged (10,000 rpm, 60 min) and the supernatant was used as a cell-free extract. The cell-free extract (250 ml) was dialyzed for 12 hours against 5 L of buffer and then applied to a DEAE-Sephacel column (3×30 cm, 200 ml) which had been equilibrized with the buffer. The adsorbed protein was eluted with an NaCl concentration gradient from 0 to 1.0 M and the active fractions were recovered.
The purine nucleosidase activity at this time was split into two peaks (FIG. 1). Fraction nos. 46 to 69 were collected as the first active fraction and fraction nos. 85 to 101 were collected as the second active fraction.
as §1

SMILES	Km (purine nucleosidase [1]) [µM]	Vmax (purine nucleosidase [1]) [µmol/min/mg]	decomposition of substrate (in words) [2]	decomposition of purine nucleosides (in words) (purine nucleosidase [3])	Relative activity (purine nucleosidase [3])	Specific activity (purine nucleosidase [1]) [µmol/min/mg]	Specific activity, Active fraction 2 ([4]; 30° C.) [µmol/min/mg]	Specific activity, Active fraction 2 ([4]; 50° C.) [µmol/min/mg]	activity against substrate (in words) [5]	Specific activity, Active fraction 1 ([6]; 30° C.) [µmol/min/mg]	Specific activity, Active fraction 1 ([6]; 50° C.) [µmol/min/mg]
O=c1[nH]c(=O)c2ncn([C@@H]3O[C@H](CO)[C@@H](O)[C@H]3O)c2[nH]1 [xanthosine]	63.8	68	cannot decompose	capable of decomposing	++++ (>50%)	–	–	–	–	–	–
Nc1nc2c(ncn2[C@@H]2O[C@H](CO)[C@@H](O)[C@H]2O)c(=O)[nH]1 [guanosine]	53.9	11.5	–	capable of decomposing	++++ (>50%)	63.3	0.33	0.26	low	0.44	1.5
OC[C@H]1O[C@@H](n2cnc3c(O)ncnc32)[C@H](O)[C@@H]1O [inosine]	29.6	18.8	–	capable of decomposing	++++ (>50%)	177	0.63	0.44	–	1.02	4.3
